US12168664B2, “Triazolopyrimidines, their preparation and use” (THE TRUSTEES OF COLUMBIA UNIVERSITY IN THE CITY OF NEW YORK, priority 2018, dated 2024)
pIC50: −log10 of the molar value.

Columns and labels:
CYP2C9 = CYP2C9 (Homo sapiens (Human), UniProt P11712); test: CYP inhibition, fluorescent, CYP2C9; type: in vitro ADME
Description: (§1) The compounds listed below were tested in various metabolic stability and CYP inhibition assays.

serum RBP4 = serum RBP4 (Mus musculus (Mouse), UniProt Q00724); test: Serum RBP4 reduction in Balb/c mice after a single oral administration; type: in vivo
Description: Pharmacodynamic Studies of 7a and 7p in Balb/c Mice Following a Single Oral Administration
Animal protocols were approved by the Institutional Animal Care and Use Committee of Columbia University and complied with guidelines set forth by The Association for Research in Vision and Ophthalmology. Compounds were prepared as a suspension in 0.9% NaCl, 2% Tween 80 for oral administration. Compounds were administered to Balb/c mice in a volume of 100 μL through oral gavage. The doses used were 15 mg/kg, 25 mg/kg and 35 mg/kg for 7a while two doses, 25 mg/kg and 35 mg/kg, were tested for DENG-31(FFB-0000082). Blood samples were collected at pre-dose and 1 hr, 2 hr, 4 hr, 6 hr, 8 hr, and 24 hr timepoints. Whole blood was drawn into a centrifuge tube and was let clot at room temperature for 30 min followed by centrifugation at 2,000×g for 15 minutes at +4° C. to collect serum. Serum RBP4 was measured using the RBP4 (mouse/rat) dual ELISA kit (AdipoGen) following the manufacturer's instructions.
In order to attain this objective, the effect of oral compound administration was studied in mice. Three doses of compound 7a and two doses of 7p were tested in Balb/c mice assay for reduction of serum RBP4.

CYP2C19 = CYP2C19 (Homo sapiens (Human), UniProt P33261); test: CYP inhibition, fluorescent, CYP2C19; type: in vitro ADME
Description: as §1

CYP2C19, sequence (P33261 whole entry, species assumed): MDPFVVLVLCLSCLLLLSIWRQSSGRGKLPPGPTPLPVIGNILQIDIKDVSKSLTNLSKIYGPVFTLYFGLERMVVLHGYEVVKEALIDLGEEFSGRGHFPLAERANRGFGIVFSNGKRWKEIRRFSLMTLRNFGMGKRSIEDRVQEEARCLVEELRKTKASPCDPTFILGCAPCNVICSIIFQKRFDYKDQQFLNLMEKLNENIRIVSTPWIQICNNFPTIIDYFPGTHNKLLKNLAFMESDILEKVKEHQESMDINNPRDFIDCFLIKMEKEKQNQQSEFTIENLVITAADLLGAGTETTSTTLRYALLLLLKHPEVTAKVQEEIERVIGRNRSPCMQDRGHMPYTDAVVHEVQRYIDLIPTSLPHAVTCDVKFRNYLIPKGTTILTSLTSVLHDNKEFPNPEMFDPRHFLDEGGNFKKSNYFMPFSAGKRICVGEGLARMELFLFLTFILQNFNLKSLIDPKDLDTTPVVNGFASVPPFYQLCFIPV
CYP2C9, sequence (P11712 whole entry, species assumed): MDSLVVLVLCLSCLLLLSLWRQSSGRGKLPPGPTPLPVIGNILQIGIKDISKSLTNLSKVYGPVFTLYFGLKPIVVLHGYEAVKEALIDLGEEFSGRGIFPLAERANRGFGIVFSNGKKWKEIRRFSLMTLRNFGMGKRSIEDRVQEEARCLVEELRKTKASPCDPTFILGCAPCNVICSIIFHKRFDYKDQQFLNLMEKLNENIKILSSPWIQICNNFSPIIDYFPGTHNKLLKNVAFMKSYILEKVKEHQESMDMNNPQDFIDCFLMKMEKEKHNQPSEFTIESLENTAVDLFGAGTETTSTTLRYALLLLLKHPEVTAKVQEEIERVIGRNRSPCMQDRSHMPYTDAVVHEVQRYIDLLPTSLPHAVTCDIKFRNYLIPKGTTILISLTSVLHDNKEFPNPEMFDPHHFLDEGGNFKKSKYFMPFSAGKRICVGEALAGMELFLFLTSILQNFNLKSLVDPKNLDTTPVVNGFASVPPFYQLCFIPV

- pIC50 (CYP2C9): < 4.00
- maximum serum RBP4 reduction (serum RBP4; single 15 mg/kg PO, at 4 hr): 83%
- maximum serum RBP4 reduction (serum RBP4; single 25 mg/kg PO, at 6 hr timepoint): 86%
- maximum serum RBP4 reduction (serum RBP4; single 35 mg/kg PO, at 8 hr timepoint): 89%
- pIC50 (CYP2C19): < 4.70
Compound: O=C(c1nc2ncccn2n1)N1C[C@H]2C[C@@H](c3ccccc3C(F)(F)F)C[C@H]2C1 [Compound 7a]
